According to the supplement of paper PMC10307832:

Assays:
Test in all cases: relative viability (nuclei count vs DMSO), 5 days (fraction); higher = more cells survive
[1] = compound: CS(=O)(=O)c1ccc(C(=O)Nc2ccc(Cl)c(-c3ccccn3)c2)c(Cl)c1 [Vismodegib] + NC(=O)Nc1cc(-c2cccc(F)c2)sc1C(=O)N[C@H]1CCCNC1 [AZD7762] (partner 0.2 µM)
Method in brief: (§1)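 Each reported value is a median over duplicate plates. It expresses relative viability: treated-well nuclei count divided by vehicle-well nuclei count. Lung cancer cell lines in 1536-well plates were dosed by pin tool a day after seeding, alone with one drug or with a fixed anchor-drug dose plus five library-drug doses (not always all listed) in √10 steps, and nuclei were counted after 5 days.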

[2] = compound: CS(=O)(=O)c1ccc(-c2cnc(N)c(C(=O)Nc3ccccc3)n2)cc1 [VE-821] + CCNC(=O)c1noc(-c2cc(C(C)C)c(O)cc2O)c1-c1ccc(CN2CCOCC2)cc1 [Luminespib] (partner 0.01 µM)
Method in brief: as §1

[3] = compound: CS(=O)(=O)c1ccc(C(=O)Nc2ccc(Cl)c(-c3ccccn3)c2)c(Cl)c1 [Vismodegib] + Cc1cc(Nc2cc(N3CCN(C)CC3)nc(Sc3ccc(NC(=O)C4CC4)cc3)n2)n[nH]1 [Tozasertib] (partner 0.1 µM)
Method in brief: as §1

[4] = compound: CS(=O)(=O)c1ccc(C(=O)Nc2ccc(Cl)c(-c3ccccn3)c2)c(Cl)c1 [Vismodegib] + N=C(N)NC(=N)NCCc1ccccc1 [Phenformin] (partner 250 µM)
Method in brief: as §1

Cell Line | relative viability ([1]; first compound 0.08 µM) | relative viability ([1]; first compound 0.253 µM) | relative viability ([1]; first compound 0.8 µM) | relative viability ([1]; first compound 2.53 µM) | relative viability ([1]; first compound 8 µM) | relative viability ([2]; first compound 0.08 µM) | relative viability ([2]; first compound 0.253 µM) | relative viability ([2]; first compound 0.8 µM) | relative viability ([2]; first compound 2.53 µM) | relative viability ([2]; first compound 8 µM) | relative viability ([3]; first compound 0.08 µM) | relative viability ([3]; first compound 0.253 µM) | relative viability ([3]; first compound 0.8 µM) | relative viability ([3]; first compound 2.53 µM) | relative viability ([3]; first compound 8 µM) | relative viability ([4]; first compound 0.08 µM) | relative viability ([4]; first compound 0.253 µM) | relative viability ([4]; first compound 0.8 µM) | relative viability ([4]; first compound 2.53 µM) | relative viability ([4]; first compound 8 µM)
201T | 0.624 | 0.623 | 0.696 | 0.622 | 0.581 | 1.06 | 1.03 | 1.06 | 1.06 | 0.934 | 0.914 | 0.919 | 0.987 | 0.946 | 0.966 | 0.45 | 0.49 | 0.423 | 0.45 | 0.44
A549 | – | – | – | – | – | – | – | – | – | – | – | – | – | – | – | 0.151 | 0.148 | 0.226 | 0.115 | 0.155
A-427 | 0.739 | 0.706 | 0.805 | 0.619 | 0.801 | 1.08 | 1 | 0.69 | 0.745 | 0.3 | 0.233 | 0.193 | 0.22 | 0.196 | 0.21 | 0.307 | 0.385 | 0.385 | 0.314 | 0.283
ABC-1 | 0.97 | 0.851 | 0.823 | 0.803 | 0.839 | 0.614 | 0.401 | 0.469 | 0.49 | 0.328 | 0.15 | 0.153 | 0.182 | 0.184 | 0.158 | 0.231 | 0.253 | 0.241 | 0.24 | 0.235
BEN | 0.792 | 0.68 | 0.77 | 0.684 | 0.701 | 0.414 | 0.374 | 0.376 | 0.344 | 0.322 | 0.545 | 0.555 | 0.513 | 0.605 | 0.466 | 0.249 | 0.281 | 0.292 | 0.255 | 0.248
CAL-12T | 0.643 | 0.559 | 0.607 | 0.577 | 0.664 | 0.655 | 0.363 | 0.4 | 0.327 | 0.137 | 0.301 | 0.28 | 0.321 | 0.35 | 0.328 | 0.641 | 0.584 | 0.578 | 0.561 | 0.578
COR-L23 | – | – | – | – | – | 0.835 | 0.651 | 0.633 | 0.342 | 0.446 | 0.203 | 0.218 | 0.181 | 0.177 | 0.168 | 0.441 | 0.423 | 0.43 | 0.453 | 0.493
COR-L 105 | – | – | – | – | – | 0.692 | 0.771 | 0.51 | 0.632 | 0.524 | 0.357 | 0.335 | 0.25 | 0.374 | 0.391 | 0.498 | 0.441 | 0.516 | 0.506 | 0.495
ChaGo-K-1 | 0.886 | 0.873 | 0.753 | 0.857 | 0.97 | 0.537 | 0.481 | 0.445 | 0.582 | 0.312 | 0.239 | 0.193 | 0.214 | 0.236 | 0.212 | 0.523 | 0.448 | 0.47 | 0.459 | 0.452
EKVX | – | 0.774 | 0.717 | 0.606 | 0.735 | 0.96 | 0.77 | 0.763 | 0.939 | 0.815 | 0.392 | 0.358 | 0.409 | 0.414 | 0.373 | 0.225 | 0.227 | 0.24 | 0.224 | 0.233
EMC-BAC-2 | 1.16 | 1.1 | 1.06 | 1.07 | 1.08 | 1.36 | 1.15 | 1.09 | 1.11 | 0.931 | 0.281 | 0.284 | 0.288 | 0.292 | 0.316 | 0.571 | 0.53 | 0.5 | 0.506 | 0.502
EPLC-272H | 0.3 | 0.166 | 0.304 | 0.163 | 0.257 | 0.265 | 0.301 | 0.179 | 0.288 | 0.221 | 0.254 | 0.273 | 0.34 | 0.348 | 0.148 | 0.348 | 0.313 | 0.316 | 0.271 | 0.264
H3255 | 0.951 | 0.886 | 0.818 | 0.785 | 0.853 | 0.903 | 0.782 | 0.78 | 0.915 | 0.973 | 0.524 | 0.55 | 0.623 | 0.606 | 0.563 | 0.362 | 0.378 | 0.362 | 0.324 | 0.413
HARA | 0.462 | – | 0.309 | 0.244 | 0.417 | 0.956 | 0.836 | 0.579 | 0.695 | 0.448 | 0.124 | 0.126 | 0.112 | 0.097 | 0.0937 | 0.47 | 0.355 | 0.537 | 0.503 | 0.415
HCC-15 | 1.17 | 1.14 | 1.19 | 1.21 | 1.21 | 0.37 | 0.175 | 0.517 | 0.422 | 0.315 | 0.415 | 0.444 | 0.386 | 0.399 | 0.424 | 0.511 | 0.458 | 0.472 | 0.496 | 0.441
HCC-44 | 1.06 | 1.04 | 0.932 | 1.01 | 1.04 | 1.34 | 0.97 | 0.908 | 1.14 | 0.807 | 0.951 | 0.836 | 0.877 | 0.832 | 0.993 | 0.184 | 0.195 | 0.179 | 0.173 | 0.183
HCC-78 | 0.575 | 0.605 | 0.544 | 0.542 | 0.634 | – | – | – | – | – | 0.352 | 0.454 | 0.502 | 0.304 | 0.41 | 0.664 | 0.704 | 0.575 | 0.615 | 0.683
HCC-366 | 0.269 | 0.217 | 0.292 | 0.258 | 0.373 | – | – | – | – | – | 0.11 | 0.106 | 0.0997 | 0.0832 | 0.0622 | 0.683 | 0.614 | 0.631 | 0.619 | 0.586
